These results are taken from patent publication US5443986A, “Enzymatic analysis using substrates that yield fluorescent precipitates” (Molecular Probes, Inc., priority 1993, dated 1995).

Series [1] is described as follows: Critical concentration (Mc) for precipitation of the enzymatic product. It counts as physicochemical. As to conditions: product of hydrolysis by excess alkaline phosphatase, 0.1M TRIS pH 10.3. On the procedure:
2D) Critical concentration: Various concentrations of 2-(4'-methoxy-2'-phosphoryloxyphenyl)quinazolinone (3e) were reacted with 50 μL of excess alkaline phosphatase in 200 μL solution of 0.1M TRIS≥pH 10.3 containing 50 mM NaCl, 10 mM MgCl2 and 0.1 mM ZnCl2. The resulting precipitate and fluorescence were measured in a CytoFluor fluorescence plate reader (Millipore) with excitation at 360 nm, emission at 460 nm using sensitivity setting 3.
3). Determination of the critical concentration and pH dependence for the precipitation. The critical concentration (Mc, in units of mmoles) and the pH dependence (pKa) for precipitation are both important parameters for judging the precipitation properties of the enzymatic products obtained from the subject substrates. Below the critical concentration the product will not be detected as a fluorescent precipitate. Obviously these two parameters contribute to the precipitation in a correlated way. As a simple approach, one may define the critical concentration as the concentration necessary for the precipitation at a high pH where all of the phenol group is ionized. Similarly, acidification by lowering the pH results in precipitation at a concentration below the critical concentration that is obtained at high pH to an extent that is related to the pKa of the phenolic group. It is a characteristic of the preferred substrates that only the product precipitate is fluorescent. In this case the precipitate is quantitated by its fluorescence which results in a correlation of the fluorescence with the degree of precipitation.
To obtain the critical concentration for one product the phosphatase substrate (1e) (200 μL) in a 96-well plate is added to 0.1M TRIS, pH 10.3, containing 50 mM NaCl, 10 mM MgCl2 and 0.1 mM ZnCl2 to yield a final concentration of 0.1 to 10 mM. 50 μL of a 1 mg/mL solution of alkaline phosphatase is then added. The fluorescence development is complete after 5 minutes as measured in using a CytoFluor™ 2300 fluorescence plate reader (Millipore, Bedford, Mass.). A concentration showing appreciable fluorescence is determined as the critical concentration.

Series [2] has as its target T1, alkaline phosphatase (Bos taurus, UniProt P19111). Format: biochemical. On the set-up: mature GPI-type homodimer. As to conditions: 0.1M TRIS pH 10.3, 50 mM NaCl, 10 mM MgCl2, 0.1 mM ZnCl2; double-reciprocal plot. As to the method: As compared with other synthetic substrates, the fluorogenic precipitating substrates described in this invention normally have high enzymatic turnover rates and moderate affinities for the enzymes. Turnover rates of the substrates can be determined as in Example 10 and expressed as micromoles of product per minute per milligram protein (k2, in units of μmol·min^-1 ·mg^-1). The affinity of the substrate is determined by its dissociation constant, KM, in millimolar units. The enzymes can bind to and catalyze conversion of the soluble substrates into detectable reaction products that are apparently less soluble and will precipitate in aqueous solutions. The preferred detectable reaction products are fluorescent precipitates. The precipitation, however, and thus fluorescence, depends on the reaction product concentration or the initial substrate concentration used, as well as the ionization state of the product's phenol group. There are two parameters determining the precipitation, i.e. critical concentration (Mc) and pH dependence (pKa). A method for determination of these parameters is given in Example 11. Table 10 gives the relevant parameters for the enzymatic reaction and precipitation of quinazolinone-based alkaline phosphatase substrates.
4). Kinetic assay of some of the substrates. The specific activity (k2, in a unit of micromole per minute per milligram protein) and Michaelis constant (KM, in a unit of millimole) for hydrolysis of the substrates by the enzyme are listed in Table 10. All of the specific enzymatic reactions are made in the following buffers:
For alkaline phosphatase: 0.1M TRIS pH 10.3 containing 50 mM NaCl, 10 mM MgCl2 and 0.1 mM ZnCl2.
Because the kinetic assay involves variable amounts of precipitate with variable light scattering, measurement in the fluorometer as described above cannot be used here. Instead, a fluorescence plate reader with front-face measurement geometry such as the CytoFluor™ 2300 (Millipore, Bedford, Mass.) is preferred for quantitating the precipitate. The following protocol illustrates the kinetic assay.
4.1 ). In a 96-well plate, pipette 200 μL of a phosphatase substrate in the alkaline phosphatase reaction buffer with a final concentration of 2 to 6 mM, then add 50 μL 1 mg/mL alkaline phosphatase. […] Fluorescence of the precipitate is measured in the CytoFluor with appropriate sensitivity and excitation and emission settings as have been determined with the fluorometer. The fluorescence signal versus the amount of the precipitate is then established for each substrate.
4.2). […] Read the fluorescence of the resulting precipitate after 10 minutes reaction time and calculate the precipitate formation rate per minute by use of the determined fluorescence signal versus the amount of the precipitate. […]

In series [3] the target is β-galactosidase from E. coli (Escherichia coli, UniProt P00722). Briefly: Detection of enzymatic activity in chromatographic fractions, galactosidase peak. Format: biochemical. Particulars: 5 μL of 5 mg/mL substrate added to 25 μL fraction, pH 7.0. On the procedure: (§1) β-galactosidase from E. coli (MW 540,000, approximately 1 mg) and β-glucuronidase from E. coli (MW 280,000, approximately 1 mg) are dissolved in 25 μL of 0.1M phosphate, pH 7,0 containing 0.11M 2-mercaptoethanol and 1 mM MgCl2 and chromatographed on a 1×35 cm column of BioGel A 1.5M equilibrated with the same buffer. Detection of the protein absorption at 280 nm is used to detect isolated protein fractions. […] To 25 μL aliquots of each fraction, is separately added 5 μL of a 5 mg/mL aqueous solution of 2-(5'-methoxy-2'-galactopyranosyl)phenyl-4-(3H)-quinazolone (3h) or 2-(2-O-β-D-glucopyranosiduronic acid)-4-(3H)-quinazolone (4h).
β-galactosidase from E. coli, sequence (P00722 2-1024): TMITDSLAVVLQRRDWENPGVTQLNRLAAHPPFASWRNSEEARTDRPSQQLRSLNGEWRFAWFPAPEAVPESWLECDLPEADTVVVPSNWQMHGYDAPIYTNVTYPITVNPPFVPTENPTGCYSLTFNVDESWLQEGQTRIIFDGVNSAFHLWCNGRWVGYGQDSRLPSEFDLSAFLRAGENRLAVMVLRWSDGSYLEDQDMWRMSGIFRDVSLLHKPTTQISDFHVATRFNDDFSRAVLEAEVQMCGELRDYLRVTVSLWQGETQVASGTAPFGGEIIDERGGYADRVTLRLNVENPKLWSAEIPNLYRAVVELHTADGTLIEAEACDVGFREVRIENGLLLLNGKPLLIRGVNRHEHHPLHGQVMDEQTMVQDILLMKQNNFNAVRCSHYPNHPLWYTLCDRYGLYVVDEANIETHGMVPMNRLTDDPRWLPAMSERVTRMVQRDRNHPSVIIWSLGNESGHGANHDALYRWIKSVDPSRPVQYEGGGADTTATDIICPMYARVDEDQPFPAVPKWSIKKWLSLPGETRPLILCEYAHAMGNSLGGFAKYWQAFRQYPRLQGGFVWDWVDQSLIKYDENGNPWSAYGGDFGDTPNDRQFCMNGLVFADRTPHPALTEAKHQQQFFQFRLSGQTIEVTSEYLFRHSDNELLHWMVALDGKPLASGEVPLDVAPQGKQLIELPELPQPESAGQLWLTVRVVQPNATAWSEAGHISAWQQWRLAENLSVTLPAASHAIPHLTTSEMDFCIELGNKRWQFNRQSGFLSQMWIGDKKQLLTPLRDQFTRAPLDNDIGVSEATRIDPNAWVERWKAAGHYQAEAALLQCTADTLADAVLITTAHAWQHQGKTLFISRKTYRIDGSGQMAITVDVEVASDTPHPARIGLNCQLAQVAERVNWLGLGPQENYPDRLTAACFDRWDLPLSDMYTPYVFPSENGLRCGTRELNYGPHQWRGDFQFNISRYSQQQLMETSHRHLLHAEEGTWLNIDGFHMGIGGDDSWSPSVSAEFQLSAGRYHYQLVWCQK

For series [4], the target named is β-glucuronidase from E. coli (Escherichia coli, UniProt P05804). Kind of series: Detection of enzymatic activity in chromatographic fractions, glucuronidase peak. Format: biochemical. As to conditions: 5 μL of 5 mg/mL substrate added to 25 μL fraction, pH 7.0. As to the method:
as §1

The target in series [5] is Alkaline phosphatase conjugated goat anti-rabbit antibodies (Bos taurus, UniProt P19111). Briefly: Western blot immunodetection of subunit II of bovine heart cytochrome c oxidase with a phosphatase substrate. Format: biochemical. On the procedure: 1.1. Cytochrome c oxidase from the bovine heart mitochondrial inner membrane is highly purified according to the method of Capaldi and Hayashi, FEBS LETT 26, 4229-4238 (1972).
Alkaline phosphatase conjugated goat anti-rabbit antibodies, sequence (P19111 20-506 limits assumed): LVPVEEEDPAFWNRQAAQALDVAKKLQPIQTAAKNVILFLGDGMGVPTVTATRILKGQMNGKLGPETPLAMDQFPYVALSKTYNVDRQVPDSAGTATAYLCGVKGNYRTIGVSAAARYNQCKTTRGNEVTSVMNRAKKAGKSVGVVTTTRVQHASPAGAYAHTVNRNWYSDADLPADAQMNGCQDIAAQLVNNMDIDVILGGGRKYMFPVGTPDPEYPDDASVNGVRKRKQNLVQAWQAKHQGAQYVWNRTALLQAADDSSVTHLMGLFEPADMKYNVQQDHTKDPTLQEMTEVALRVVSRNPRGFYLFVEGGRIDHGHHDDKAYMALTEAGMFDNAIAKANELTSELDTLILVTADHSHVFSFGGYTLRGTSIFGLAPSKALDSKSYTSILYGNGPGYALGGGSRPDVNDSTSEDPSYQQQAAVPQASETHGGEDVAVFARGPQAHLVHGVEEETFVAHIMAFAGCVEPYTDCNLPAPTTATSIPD
1.2. 50 μl of pure cytochrome c oxidase (20 mg/ml) is dissolved in a dissociation buffer to a final concentration of 1 mg/ml for electrophoresis.
1.3. An 18% acrylamide gel containing 6M urea, 0.1% SDS is used for gel electrophoresis according to a procedure published by Zhang, Lindorfer and Capaldi, BIOCHEMISTRY, 27, 1389-1394 (1988). 15 μg of protein is loaded onto each lane. The subunits of cytochrome c oxidase are separated during electrophoresis (there are 13 different subunits in bovine cytochrome c oxidase).
2.3. Protein samples in both B and C, resolved in SDS-gel electrophoresis, are semi-dry transferred onto a nitrocellulose membrane following a standard electrophoretic elution procedure published by Harlow and Lane, ANTIBODIES, A LABORATORY MANUAL, Cold Spring Harbor Lab (1988).
3.1. The nitrocellulose membrane is incubated with a polyclonal antibody that is specific for Subunit II of Cytochrome C oxidase (final antibody concentration: 20 μg/ml) at room temperature for 12 hours with agitation.
3.2. The membrane is incubated with the enzyme-labeled secondary antibody at room temperature for 1 hour with agitation. Alkaline phosphatase conjugated goat anti-rabbit antibodies are used with 1:3000 dilution in TTBS buffer containing 1% nonfat milk.
3.4. Membrane B is incubated in the phosphatase substrate BCIP/NBT (BioRad), while C is incubated with the fluorogenic, phosphatase substrate 1e.

Series [6] has as its target T1, alkaline phosphatase. Briefly: Fluorescence and light scattering on hydrolysis of the substrate (FIG. 2B, 2C). It counts as biochemical. On the set-up: mature GPI-type homodimer. Particulars: 10 μg/mL alkaline phosphatase, 20 seconds. On the procedure: 2B) Coexistence of fluorescence and precipitation: 5 mM 2-(4'-methoxy-2'-phosphoryloxyphenyl)quinazolinone (3e), in 0.1M TRIS pH 10.3 containing 50 mM NaCl, 10 mM MgCl2 and 0.1 mM ZnCl2, yields 210 units of fluorescence by action of 10 μg/mL alkaline phosphatase in 20 seconds. The fluorescence can be eliminated by addition of 0.6% Triton X-100 as a result of precipitate dissolution.
2C) Light-scattering increase as a result of precipitation: 2 mM 2-(4'-methoxy-2'-phosphoryloxyphenyl)quinazolinone (3e) scattering increases from 450 units to beyond the detection limit of 1000 units in 20 seconds by action of 10 μg/mL alkaline phosphatase, showing rapid formation of a precipitate. The enzymatic reaction was in 0.1M TRIS pH 10.3 containing 50 mM NaCl, 10 mM MgCl2 and 0.1 mM ZnCl2. The scattering measurement was made in a Perkin-Elmer LS-50 fluorometer with 5 nm slits and a coincident excitation and emission wavelength of 420 nm.

T1 sequence (P19111 20-506): as the sequence (P19111 20-506 limits assumed) above
β-glucuronidase from E. coli, sequence (P05804 whole entry): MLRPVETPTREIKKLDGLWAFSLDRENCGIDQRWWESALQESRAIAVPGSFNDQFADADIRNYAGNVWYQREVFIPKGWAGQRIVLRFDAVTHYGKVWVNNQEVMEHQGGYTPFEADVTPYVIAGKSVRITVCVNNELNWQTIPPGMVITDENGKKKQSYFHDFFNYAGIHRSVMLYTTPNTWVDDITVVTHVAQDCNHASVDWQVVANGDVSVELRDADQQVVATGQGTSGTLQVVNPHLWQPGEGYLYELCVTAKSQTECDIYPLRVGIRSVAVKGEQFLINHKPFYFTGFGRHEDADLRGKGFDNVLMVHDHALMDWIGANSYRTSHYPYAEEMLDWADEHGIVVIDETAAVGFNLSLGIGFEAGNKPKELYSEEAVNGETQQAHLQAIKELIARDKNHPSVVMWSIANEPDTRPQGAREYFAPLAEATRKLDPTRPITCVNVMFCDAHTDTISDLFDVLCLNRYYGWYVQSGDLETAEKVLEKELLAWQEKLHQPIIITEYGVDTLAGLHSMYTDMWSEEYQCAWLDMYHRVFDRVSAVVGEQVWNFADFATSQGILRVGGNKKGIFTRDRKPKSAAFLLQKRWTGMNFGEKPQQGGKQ

Regarding `COc1cc(OC)c(OP(=O)(O)O)c(-c2nc3ccccc3c(=O)[nH]2)c1` [2-(3',5'-dimethoxyphenyl)], the “Mc (critical concentration for precipitation)” value (shortened to “Mc”) in series [1] amounted to 0.3 mM. Besides, the “k2 (specific activity, turnover rate)” value on alkaline phosphatase [2] was 215.60 µmol/min/mg.
With `COc1ccc(O[C@@H]2O[C@H](CO)[C@H](O)[C@H](O)[C@H]2O)c(-c2nc3ccccc3c(=O)[nH]2)c1` [3h, 2-(5'-methoxy-2'-galactopyranosyl)phenyl-4-(3H)-quinazolone], the “fluorescent precipitate formation in fractions of the first peak (β-galactosidase)” value in series [3] is “Visible yellow fluorescent precipitate formation occurs”. For the same compound, the “fluorescent precipitate formation in fractions of the second peak (β-glucuronidase)” value in series [4] is listed as “No cross reactivity is observed”.
For `O=C(O)[C@H]1O[C@@H](Oc2ccccc2-c2nc3ccccc3c(=O)[nH]2)[C@H](O)[C@@H](O)[C@@H]1O` [4h, 2-(2-O-β-D-glucopyranosiduronic acid)-4-(3H)-quinazolone], in that order: “No cross reactivity is observed” and “visible formation of a green fluorescent precipitate occurs”.
As to `O=c1[nH]c(-c2ccccc2OP(=O)(O)O)nc2ccccc12` [1e, 2-phenyl], in series [1], the “Mc” value worked out at 1.5 mM. Further, the “persistence of the stain on the membrane” value in series [5] (membrane kept in a dry Petri dish) was “still fluorescent after 3 days”. Further, in series [5] (nitrocellulose membrane), the “incubation time after which the immunoreactive band is visualized” value turned out to be 30 min and the “staining of other transferred bands” value is listed as “No other transferred bands are stained”. Moreover, at alkaline phosphatase [2], the “k2 (specific activity, turnover rate)” value worked out at 188.81 µmol/min/mg.
`COc1ccc(OP(=O)(O)O)c(-c2nc3ccc(Cl)cc3c(=O)[nH]2)c1` [5e, 2-(5'-methoxyphenyl)-6-chloro]: the “Mc” value in series [1] was found to be 1.2 mM.
Same read-out and setting: the result for `COc1ccc(OP(=O)(O)O)c(-c2nc3ccccc3c(=O)[nH]2)c1` [2e, 2-(5'-methoxyphenyl)] reads 0.8 mM.
With `O=c1[nH]c(-c2ccccc2OP(=O)(O)O)nc2ccc([N+](=O)[O-])cc12` [6e, 2-phenyl-6-nitro], in series [1], the “Mc” value turned out to be 1.2 mM. For the same compound, the “k2 (specific activity, turnover rate)” value on alkaline phosphatase [2] came out at 150.66 µmol/min/mg.
Consider `COc1ccc(-c2nc3ccccc3c(=O)[nH]2)c(OP(=O)(O)O)c1` [3e, 2-(4'-methoxy-2'-phosphoryloxyphenyl)quinazolinone], for which the “Mc” value in series [1] worked out at 2.5 mM. At alkaline phosphatase [6] (2 mM substrate, starts at 450 units, detection limit 1000 units, 420 nm), the “light scattering after action of alkaline phosphatase” value was over 1000 units. For the same compound, the “fluorescence yielded by action of alkaline phosphatase” value on alkaline phosphatase [6] (5 mM substrate, 0.1M TRIS pH 10.3) worked out at 210 units.
As to `O=c1[nH]c(-c2cc(Cl)ccc2OP(=O)(O)O)nc2ccccc12` [9e, 2-(5'-chlorophenyl)], the “Mc” value in series [1] turned out to be 0.4 mM.
